Experimental data reported in US10208007B2, “Use of strigolactones and strigolactone analogs for treating proliferative conditions” (The State of Israel, Ministry of Agriculture & Rural …, priority 2011, dated 2019).
Where two headings read alike, the source gives them in different places.

Assays:
GRIM REAPER (GRI) = assay: Gene transcription level by quantitative PCR: GRI; assay type: in vivo, Arabidopsis thaliana
Description: Seeds of homozygous lines of Arabidopsis thaliana wild type (WT; Columbia; Col-0) and max2-1 mutant (http://abrc.osu.edu/) were surface-sterilized and germinated on 1/2 Murashige and Skoog (MS) plates supplemented with 1% sucrose and solidified with 0.7% agar. Plates were incubated vertically in the dark at 4° C. for two days to synchronize germination. Three days after germination, seedlings were gently transferred using forceps to 1/2 MS plates containing various concentrations of GR-24 as a mixture of four diastereomers: (±)-GR-24 and (±)-2'-epi-GR-24. The root tip of the transferred seedling was marked on the plates. The plates remained unsealed to prevent accumulation of gases (e.g., ethylene), and were positioned in an upright 45° position, and incubated at 22° C. with a light intensity of […] m-2 s-1 provided by white fluorescent tubes and under a photoperiod of 16 hours exposure to light/8 hours in the dark for 6-12 days. GR-24 treatments were conducted at concentrations ranging from 2.7×10^-6 to 13.5×10^-6 M. […] GR-24, ST-357 and ST-362 were initially dissolved in acetone to give a 4.5 mM, 10 μM and 10 μM solutions, respectively, which were then further diluted with double-distilled sterile water (DDW). […] In each of the experiments, non-treated roots were compared to the respective acetone control. Where no difference was observed between the various controls, non-treated roots are shown. Where differences were recorded between non-treated and acetone controls, the comparison was made between GR-24, ST-357 and ST-362-treated and acetone-treated roots. RNA was extracted from seedlings grown and treated as described in Example 1. Quantitative PCR was performed by amplifying fragments of genes of interest (Tables 6 & 7). Arabidopsis 15S ribosomal RNA (GenBank accession no. AT1G04270.1) served as the reference gene for the amount of RNA, and was amplified using specific primers (forward) [NT] and (reverse) [NT]. The experiment was performed in 5-6 biological replicates; each replicate included 8 plants, on which 3 technical repeats were performed. Means and standard error were determined from all biological replicates. Primers were designed using PrimerQuest software (Integrated DNA Technologies). RNA was extracted using Trizol (Invitrogen, Carlsbad, Calif., USA) using the manufacturer's protocol. 1 μg RNA was reverse-transcribed in a total volume of 20 μl using the Superscript First strand cDNA synthesis kit (Invitrogen). […] The expression of each target gene was normalized to the expression of GAPDH RNA and is presented as the ratio of the target gene to GAPDH RNA, expressed as 2-ΔCt, where Ct is the threshold cycle and ΔCt=[NT] […]

MDA-MB-231 = assay: Crystal violet monolayer growth assay; assay type: cell-based, human; settings: for IC50: after 7 days, read-out: IC50 of long-term proliferation
Description: (§1) Cells were seeded at 1500 (MDA-MB-231, MDA-MB-436 and BJ fibroblasts) or 4000 cells per well of 96 well plates. […] At the indicated time points, individual plates were fixed and stained with crystal violet-methanol solution (50 μl per well) for 15 minutes, washed several times with distilled water and plates were air dried overnight. Sodium citrate solution (0.1M) was used to solubilize bound crystal violet and optical densities were measured at 560 nm (Glomax®-Multi Detection plate reader, Promega).
(§2) Cells (MDA-MB-231, MDA-MB-436 and BJ fibroblasts) were seeded at 1500 or 4000 cells per well of 96 well plates. […] At the indicated time points, individual plates were fixed and stained with crystal violet solution (0.5% crystal violet and 25% methanol) for 15 min, washed several times in distilled water and air dried overnight. Sodium citrate solution (0.1M) was used to solubilize bound crystal violet and optimal densities were measured at 560 nm (Glomax®—Multi Detection plate reader, Promega).
(§3) The effect of GR-24 (FIG. 3) on long-term cancer cell line growth was assessed by crystal violet assay. MCF-7 (estrogen receptor positive (ER+), tumorigenic, nonmetastatic), (A) MDA-MB-231, MDA-MB-436 (ER negative (−), metastatic) and BJ fibroblasts (normal, non-neoplastic line) were treated with GR-24 at a dose range of 0.5 to 10 ppm (1.65-33 μM). Growth was monitored for up to 10 days. At the indicated time points, plates were stained with crystal violet. Data are reported as the Percent Absorbance (560 nm) of vehicle control. Average±standard deviations (SD). Student's t-test (2-tailed, paired) was used to evaluate GR-24 treated groups with vehicle (control) groups at final time point and regarded as being significant if p<0.05 (*), very significant if p<0.01 (**), extremely significant if p<0.001 (***). (B) Is a graph showing the light absorbance reading (560 nm) after 7 days exposure to the indicated doses of GR-24. Data expressed as a percentage of vehicle controls. Average of triplicate samples+SD. Horizontal line (---) marks 50% reduction in Absorbance (560 nm) relative to vehicle controls.

MDA-MB-436 = assay: Crystal violet monolayer growth assay; assay type: cell-based, human; settings: for IC50: after 7 days, read-out: IC50 of long-term proliferation
Description: as §1, §2, §3

BJ fibroblasts = assay: Crystal violet monolayer growth assay; assay type: cell-based, human; settings: up to 10 ppm, up to 10 days
Description: as §1, §2, §3

MCF-7 = assay: Crystal violet monolayer growth assay; assay type: cell-based, human
Description: as §1, §2, §3

With `CC1=C[C@H](O/C=C2/C(=O)O[C@@H]3c4ccccc4C[C@H]23)OC1=O` (relative stereo) [GR-24, (3aR*,8bS*,E)-3-(((R*)-4-methyl-5-oxo-2,5-dihydrofuran-2-yloxy)methylene)-3,3a,4,8b-tetrahydro-2H-indeno[1,2-b]furan-2-one] the “GRI gene expression induction” value (GRIM REAPER (GRI); 3 μM) was 2.3 fold, the “GRI transcription level versus controls” value (GRIM REAPER (GRI); WT seedlings, 3 μM) was 33.008 ± 7.121 and the GRI gene transcription (GRIM REAPER (GRI); max2-1 mutants) was “not induced”. For the same molecule, the “GRI transcription level versus controls” value (GRIM REAPER (GRI); max2-1 seedlings, 3 μM) was 0.214 ± 0.193, the IC50 (MDA-MB-231; Homo sapiens, MDA-MB-231, 168 h) was 22.1 µM and the IC50 (MDA-MB-231) was 18.8 µM. The “Concentrations resulting in a significant reduction in growth compared to vehicle” value (MDA-MB-231; up to 10 days) was 2.5-5 ppm, the IC50 (MDA-MB-436; Homo sapiens, MDA-MB-436, 168 h) was 18.8 µM and the IC50 (MDA-MB-436) was 17.2 µM. The “Concentrations resulting in a significant reduction in growth compared to vehicle” value (MDA-MB-436; up to 10 days) was 2.5-5 ppm, the “Growth compared to vehicle” value (BJ fibroblasts) was “no significant reduction in growth” and the IC50 (MCF-7; Homo sapiens, MCF7, 168 h, after 7 days, read-out: IC50 of long-term proliferation) was 18.8 µM. The “IC50 of long-term proliferation” value (MCF-7; after 7 days) was 5.7 ppm and the “Concentrations resulting in a significant reduction in growth compared to vehicle” value (MCF-7; up to 10 days) was 2.5-5 ppm.
